What was measured:
Assay type in all cases: in vivo
[1] = tested on: carbohydrate metabolism-modified mice (type 1 diabetes model); assay: fasting blood glucose measurement; conditions: vs water control
Experimental: (§3) After removing the left kidney of C57BL/6(B6) mice (−2 weeks: −2 w), a D-amino acid-eliminated diet (D-amino acid-free diet, D-fd) was provided, and groups administered aqueous solution of 20 mM D-alanine (n=5), 20 mM D-serine (n=5), 20 mM D-proline (n=5), 20 mM D-leucine (n=5) or water (n=6 to 14) in drinking water, and a group given normal diet and water as a control (n=5), were administered streptozotocin (STZ) at 50 mg/kg (0 weeks) to create carbohydrate metabolism-modified model mice, and blood insulin measurement (−1 weeks, 3 weeks), casual blood glucose measurement (−1 weeks, 2 weeks), fasting blood glucose measurement (−1 weeks, 3 weeks) and measurement of insulin and glucagon in pancreatic islets of Langerhans by antibody staining, were conducted as appropriate.

[2] = tested on: carbohydrate metabolism-modified mice (type 1 diabetes model); assay: casual blood glucose measurement; conditions: for increase in casual blood glucose level: 20 mM in drinking water on D-amino acid-free diet, after STZ (2 weeks); for casual blood glucose level: vs water control
Experimental: as §3

[3] = tested on: carbohydrate metabolism-modified mice (type 1 diabetes model); assay: systolic/diastolic blood pressure measurement; conditions: 80 mM in drinking water; 10 weeks after STZ; vs B6 group
Experimental: (§1) After removing the left kidney of C57BL/6(B6) mice (−2 weeks: −2 w), a group administered an aqueous solution of 20 mM D-alanine (n=5 to 8), 80 mM D-alanine (n=3 to 4), 20 mM D-serine (n=6 to 7) or 80 mM D-serine (n=4) as drinking water, and a group administered water as drinking water as a control (n=8) were administered streptozotocin (STZ) at 50 mg/kg (0 weeks) to create carbohydrate metabolism-modified model mice, and insulin tolerance testing (−1 weeks, 2 weeks), casual blood glucose measurement (0 weeks to 18 weeks), fasting blood glucose measurement (0 weeks to 16 weeks) and systolic/diastolic blood pressure measurement (−1 weeks to 18 weeks) were conducted as appropriate.

[4] = tested on: db/db mice (type 2 diabetes model); assay: casual blood glucose in db/db mice; conditions: 20 mM in drinking water, 5 to 18 weeks, vs control group
[5] = tested on: carbohydrate metabolism-modified mice (type 1 diabetes model); assay: insulin tolerance testing (ITT); conditions: before and at 2 weeks after STZ, vs water control; for blood glucose level and insulin resistance in insulin tolerance testing (ITT): 20 mM in drinking water
Experimental: (§2) After removing the left kidney of C57BL/6(B6) mice (−2 weeks: −2 w), a group administered Risperidone aqueous solution as a DAO inhibitor in drinking water (n=3 to 7) and a group administered water as drinking water (n=9 to 11) as a control were administered streptozotocin (STZ) at 50 mg/kg (0) weeks) to create carbohydrate metabolism-modified model mice, and insulin tolerance testing (−1 weeks, 2 weeks), intra-peritoneal glucose tolerance testing (−1 weeks), casual blood glucose measurement (−1 weeks, 2 weeks, 6 weeks) and fasting blood glucose measurement (−1 weeks, 2 weeks) were conducted as appropriate.
as §1

[6] = tested on: carbohydrate metabolism-modified mice (type 1 diabetes model); assay: death during D-amino acid administration in drinking water; conditions: 80 mM in drinking water (n=4); within 18 weeks
Experimental: as §1

[7] = tested on: carbohydrate metabolism-modified mice (type 1 diabetes model); assay: intra-peritoneal glucose tolerance testing (IPGTT); conditions: Risperidone in drinking water; B6 mice, -1 weeks; vs water control
Experimental: as §2

[8] = 20 mM or 80 mM in drinking water, dose-dependent, after STZ (0 to 16 weeks)
[9] = 20 mM or 80 mM in drinking water, dose-dependent, after STZ (0 to 18 weeks)

SMILES | fasting blood glucose level [1, 8] | increase in casual blood glucose level [2] | casual blood glucose level [2, 9] | diastolic pressure [3] | systolic pressure [3] | casual blood glucose level [4] | blood glucose level and insulin resistance in insulin tolerance testing (ITT) [5] | death of animals (toxicity) [6] | blood glucose level in intra-peritoneal glucose tolerance testing (IPGTT) [7] | fasting blood glucose level ([1]; Risperidone in drinking water, after STZ (2 weeks)) | casual blood glucose level ([2]; Risperidone in drinking water, after STZ (2, 6 weeks)) | blood glucose level in insulin tolerance testing (ITT) ([5]; Risperidone aqueous solution in drinking water, left kidney removed, STZ 50 mg/kg B6 mice)
C[C@@H](N)C(=O)O [D-alanine] | remained at a low levels | suppressed | remained at a low levels | lowered | lowered | lower levels | lower blood glucose levels and lower insulin resistance compared to the control group |  |  |  |  | 
CC(C)C[C@@H](N)C(=O)O [D-leucine] |  | suppressed |  |  |  |  |  |  |  |  |  | 
N[C@H](CO)C(=O)O [D-serine] | remained at a low levels | suppressed | remained at a low levels |  |  |  | lower blood glucose levels and lower insulin resistance compared to the control group | one individual died within 18 weeks |  |  |  | 
Cc1nc2n(c(=O)c1CCN1CCC(c3noc4cc(F)ccc34)CC1)CCCC2 [Risperidone, reference compound] |  |  |  |  |  |  |  |  | lower values for blood glucose level than the control group | remained at low levels in the Risperidone group compared to the control | remained at low levels in the Risperidone group compared to the control group | lower blood glucose levels compared to the control group
